From patent US20060183902A1, “Dihydroindolyl methanones as alpha 1a/1d adrenoreceptor modulators for the treatment of benign prostatic hypertrophy and lower urinary tract symptoms” (priority 2005, published 2006)
Where “and” joins values, the source holds several entries; their conditions need not be identical. Equal values may be shown once.

Experiments:
α1d-AR = biological target: T1, α1d-AR (Homo sapiens, UniProt P25100); test: α1-Adrenergic receptor radio-ligand (125I-HEAT) binding assay, α1d subtype; conditions: COS-7 cell membranes transfected with α1d-AR, 125I-HEAT 50 pM; read-out: Receptor Binding, Ki α1d-AR
T1 construct: expressed in transfected cells; host or cells: COS-7
T1 sequence (P25100 1-572): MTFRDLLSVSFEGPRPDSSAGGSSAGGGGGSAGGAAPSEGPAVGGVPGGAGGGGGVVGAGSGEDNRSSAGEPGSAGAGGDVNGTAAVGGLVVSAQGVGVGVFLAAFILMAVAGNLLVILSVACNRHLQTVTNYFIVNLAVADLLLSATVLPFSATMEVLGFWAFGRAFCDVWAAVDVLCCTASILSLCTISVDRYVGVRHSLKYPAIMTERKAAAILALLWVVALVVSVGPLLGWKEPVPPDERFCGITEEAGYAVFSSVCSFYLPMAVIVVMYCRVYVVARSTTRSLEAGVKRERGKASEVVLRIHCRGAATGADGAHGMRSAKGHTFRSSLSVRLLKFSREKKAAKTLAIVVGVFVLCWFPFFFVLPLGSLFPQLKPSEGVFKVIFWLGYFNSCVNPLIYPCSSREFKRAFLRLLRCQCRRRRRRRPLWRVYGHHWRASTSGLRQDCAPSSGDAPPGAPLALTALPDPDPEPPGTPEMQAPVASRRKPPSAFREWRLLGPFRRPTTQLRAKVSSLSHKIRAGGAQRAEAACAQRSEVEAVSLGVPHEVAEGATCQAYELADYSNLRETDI
Experimental: (§1) Membranes were prepared from COS-7 cells (African Green monkey kidney SV40-transformed cells) that had been transfected with one of the three α1-AR subtypes by the following method:
(§2) COS cells from ten 100 mm tissue culture plates were scraped into a 5 mL volume of TE (a mixture of 50 mM tris(hydroxymethyl)aminomethane hydrochloride (Tris-HCl) and 5 mM ethylenediaminetetraacetic acid (EDTA) at pH 7.4). The cell suspension was disrupted with a Brinkman Polytron (at a setting of 8) for 10 sec. The disrupted cells were centrifuged at 1000×g for 10 min at 4° C. Supernatants were centrifuged at 34,500×g for 20 min at 4° C. The membrane pellets were suspended in a 2 mL volume of TNE (a mixture of 50 mM Tris-HCl, 5 mM EDTA and 150 mM NaCl at pH7.4). An aliquot of the membrane suspension was stored at −70° C. until use. The protein concentration was determined using a BioRad “DC” protein assay kit following membrane solubilization with Triton X-100.
(§3) Triplicate determinations of radio-ligand binding in the presence of increasing concentrations of testing compound were made. The reagents were added to 96-well polypropylene plate wells. Each assay well contained 140 μL TNE, 25 μL ^125I-2-(β-4-hydroxyplenyl)ethylaminomethyltetralone (^125I-HEAT) (specific activity 2200 Ci/mmol, Dupont-New England Nuclear, 50 pM final), 10 μL testing compound dissolved in dimethyl sulfoxide (DMSO) (1 pM to 10 μM in half-log increments, final), and 25 μL appropriate α1-AR membrane subtype suspension in TNE (0.5 ng/μL for the α1a and α1b subtypes and 13 ng/μL for the α1d subtype). The plate was incubated at rt for 1 hr. The contents of the wells were filtered through a glass filter (type C) (GF/C) membrane Unifilter plate (Packard Instruments) using the Packard Filtermate cell harvester. The filter plates were dried in a vacuum oven for 30 min at 40° C. 25 μL Microscint 20 liquid scintillation fluid (Packard Instuments) was added to each well. The radioactive content was analyzed in the TopCount microplate scintillation counter (Packard Instruments).
(§4) The Ki values (in nM) shown in Table 1 were determined using GraphPad Prism software.

α1b-AR = biological target: T2, α1b-AR (Homo sapiens, UniProt P35368); test: α1-Adrenergic receptor radio-ligand (125I-HEAT) binding assay, α1b subtype; conditions: COS-7 cell membranes transfected with α1b-AR, 125I-HEAT 50 pM; read-out: Receptor Binding, Ki α1b-AR
T2 construct: expressed in transfected cells; host or cells: COS-7
T2 sequence (P35368 1-520): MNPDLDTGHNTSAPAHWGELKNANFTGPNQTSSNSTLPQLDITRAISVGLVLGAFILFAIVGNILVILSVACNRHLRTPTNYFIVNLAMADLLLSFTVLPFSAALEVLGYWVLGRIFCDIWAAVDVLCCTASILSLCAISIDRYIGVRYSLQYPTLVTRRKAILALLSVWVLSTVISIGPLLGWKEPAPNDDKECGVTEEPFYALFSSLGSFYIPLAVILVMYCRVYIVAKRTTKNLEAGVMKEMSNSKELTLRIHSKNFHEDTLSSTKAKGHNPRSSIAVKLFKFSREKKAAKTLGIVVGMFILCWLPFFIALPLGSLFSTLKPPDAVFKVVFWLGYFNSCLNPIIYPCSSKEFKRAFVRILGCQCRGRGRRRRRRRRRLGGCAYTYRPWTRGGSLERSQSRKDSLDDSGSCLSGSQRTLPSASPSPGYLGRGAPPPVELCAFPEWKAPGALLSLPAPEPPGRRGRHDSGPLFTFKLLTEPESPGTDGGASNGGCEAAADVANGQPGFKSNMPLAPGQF
Experimental: as §1, §2, §3, §4

α1a-AR = biological target: T3, α1a-AR (Homo sapiens, UniProt P35348); test: α1-Adrenergic receptor radio-ligand (125I-HEAT) binding assay, α1a subtype; conditions: COS-7 cell membranes transfected with α1a-AR, 125I-HEAT 50 pM; read-out: Receptor Binding, Ki α1a-AR
T3 construct: expressed in transfected cells; host or cells: COS-7
T3 sequence (P35348 1-466): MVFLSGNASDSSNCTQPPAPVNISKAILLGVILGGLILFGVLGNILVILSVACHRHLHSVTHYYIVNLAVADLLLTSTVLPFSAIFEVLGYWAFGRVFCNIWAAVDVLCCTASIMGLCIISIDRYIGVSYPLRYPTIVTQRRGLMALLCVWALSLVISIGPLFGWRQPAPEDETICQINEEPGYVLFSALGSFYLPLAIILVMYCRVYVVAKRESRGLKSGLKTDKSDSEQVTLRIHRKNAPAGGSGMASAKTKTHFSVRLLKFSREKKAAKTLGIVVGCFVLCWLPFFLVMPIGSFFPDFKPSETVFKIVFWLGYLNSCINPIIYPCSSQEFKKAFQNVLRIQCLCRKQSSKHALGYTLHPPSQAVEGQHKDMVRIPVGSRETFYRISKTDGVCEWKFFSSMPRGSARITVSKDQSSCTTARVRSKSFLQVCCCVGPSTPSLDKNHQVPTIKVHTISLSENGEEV
Experimental: as §1, §2, §3, §4

Row | SMILES | Ki (α1d-AR) | Ki (α1b-AR) | Ki (α1a-AR)
1 | COc1ccccc1C1CCN(Cc2ccc(C(=O)N3CCc4ccc(NC(=O)c5c(OC)cccc5OC)cc43)cc2)CC1 [Cpd 39, 2,6-dimethoxy-N-(1-{4-[4-(2-methoxy-phenyl)-piperidin-1-ylmethyl]-benzoyl}-2,3-dihydro-1H-indol-6-yl)-benzamide] | 0.041 µM | 0.595 µM | 0.074 µM
2 | CC(C)Oc1ccccc1N1CCN(Cc2cccc(C(=O)N3CCc4ccc(NCc5ccc6c(c5)OCO6)cc43)c2)CC1 [Cpd 41, {6-[(benzo[1,3]dioxol-5-ylmethyl)-amino]-2,3-dihydro-indol-1-yl}-{3-[4-(2-isopropoxy-phenyl)-piperazin-1-ylmethyl]-phenyl}-methanone] | 0.0015 µM | 0.208 µM | 0.031 µM
3 | COc1ccc(C(=O)Nc2ccc3c(c2)N(C(=O)c2cccc(CN4CCN(c5ccccc5OC(C)C)CC4)c2)CC3)cc1 [Cpd 42, N-(1-{3-[4-(2-isopropoxy-phenyl)-piperazin-1-ylmethyl]-benzoyl}-2,3-dihydro-1H-indol-5-yl)-4-methoxy-benzamide] | 0.0058 µM | 0.447 µM | 0.0038 µM
4 | CC(C)Oc1ccccc1N1CCN(Cc2cccc(C(=O)N3CCc4ccc(N(C(=O)Nc5c(F)cccc5F)C(=O)Nc5c(F)cccc5F)cc43)c2)CC1 [Cpd 43, 3-(2,6-difluoro-phenyl)-1-(1-{3-[4-(2-isopropoxy-phenyl)-piperazin-1-ylmethyl]-benzoyl}-2,3-dihydro-1H-indol-6-yl)-1-(2,6-difluorophenylaminocarbonyl)-urea] | 0.0028 µM and 0.0032 µM | 0.204 µM and 0.185 µM | 0.0078 µM and 0.0034 µM
5 | CC(C)Oc1ccccc1N1CCN(Cc2cccc(C(=O)N3CCc4ccc(NS(=O)(=O)c5c(F)cccc5F)cc43)c2)CC1 [Cpd 45, 2,6-difluoro-N-(1-{3-[4-(2-isopropoxy-phenyl)-piperazin-1-ylmethyl]-benzoyl}-2,3-dihydro-1H-indol-6-yl)-benzenesulfonamide] | 0.004 µM | 0.888 µM | 0.0026 µM
6 | Cc1ccc(S(=O)(=O)Nc2ccc3c(c2)N(C(=O)c2cccc(CN4CCN(c5ccccc5OC(C)C)CC4)c2)CC3)cc1 [Cpd 46, N-(1-{3-[4-(2-isopropoxy-phenyl)-piperazin-1-ylmethyl]-benzoyl}-2,3-dihydro-1H-indol-6-yl)-4-methyl-benzenesulfonamide] | 0.0056 µM | 0.242 µM | 0.0059 µM
7 | CCS(=O)(=O)Nc1ccc2c(c1)N(C(=O)c1cccc(CN3CCN(c4ccccc4OC(C)C)CC3)c1)CC2 [Cpd 47, ethanesulfonic acid (1-{3-[4-(2-isopropoxy-phenyl)-piperazin-1-ylmethyl]-benzoyl}-2,3-dihydro-1H-indol-6-yl)-amide] | 0.0026 µM | 0.23 µM | 0.0023 µM
8 | CC(C)Oc1ccccc1N1CCN(Cc2cccc(C(=O)N3CCc4ccc(NC(=O)c5ccc(F)cc5)cc43)c2)CC1 [Cpd 48, 4-fluoro-N-(1-{3-[4-(2-isopropoxy-phenyl)-piperazin-1-ylmethyl]-benzoyl}-2,3-dihydro-1H-indol-6-yl)-benzamide] | 0.006 µM | 0.889 µM | 0.074 µM
9 | CC(C)Oc1ccccc1N1CCN(Cc2cccc(C(=O)N3CCc4ccc(NC(N)=O)cc43)c2)CC1 [Cpd 49, (1-{3-[4-(2-isopropoxy-phenyl)-piperazin-1-ylmethyl]-benzoyl}-2,3-dihydro-1H-indol-6-yl)-urea] | 0.013 µM | 0.351 µM | 0.014 µM
10 | COc1ccccc1C1CCN(Cc2ccc(C(=O)N3CCc4ccccc43)cc2)CC1 [Cpd 50, (2,3-dihydro-indol-1-yl)-{4-[4-(2-methoxy-phenyl)-piperidin-1-ylmethyl]-phenyl}-methanone] | 0.032 µM | 0.458 µM | 0.0078 µM
11 | CC(C)Oc1ccccc1C1CCN(Cc2cccc(C(=O)N3CCc4ccccc43)c2)CC1 [Cpd 51, (2,3-dihydro-indol-1-yl)-{3-[4-(2-isopropoxy-phenyl)-piperidin-1-ylmethyl]-phenyl}-methanone] | 0.0016 µM | 0.106 µM | 0.0008 µM
12 | CC(C)Oc1ccccc1CN1CCN(Cc2ccc(C(=O)N3CCc4ccccc43)cc2)CC1 [Cpd 52, (2,3-dihydro-indol-1-yl)-{4-[4-(2-isopropoxy-benzyl)-piperazin-1-ylmethyl]-phenyl}-methanone] | 0.159 µM | 1.73 µM | 0.122 µM
13 | COc1ccccc1CN1CCN(Cc2ccc(C(=O)N3CCc4ccccc43)cc2)CC1 [Cpd 53, (2,3-dihydro-indol-1-yl)-{4-[4-(2-methoxy-benzyl)-piperazin-1-ylmethyl]-phenyl}-methanone] | 0.096 µM | 0.104 µM | 0.082 µM
14 | O=C(c1ccc(CN2CCN(c3ccccc3OCC(F)(F)F)CC2)cc1)N1CCc2ccccc21 [Cpd 55, (2,3-dihydro-indol-1-yl)-(4-{4-[2-(2,2,2-trifluoro-ethoxy)-phenyl]-piperazin-1-ylmethyl}-phenyl)-methanone] | 0.043 µM | 0.31 µM | 0.0255 µM
15 | CC(C)Oc1ccccc1CN1CCN(Cc2cccc(C(=O)N3CCc4ccccc43)c2)CC1 [Cpd 56, (2,3-dihydro-indol-1-yl)-{3-[4-(2-isopropoxy-benzyl)-piperazin-1-ylmethyl]-phenyl}-methanone] | 1.91 µM | 0.655 µM | 1.2 µM
16 | CC(C)Oc1ccccc1C1CCN(Cc2cccc(C(=O)N3CCc4ccc(NCc5ccccc5F)cc43)c2)CC1 [Cpd 57, [6-(2-fluoro-benzylamino)-2,3-dihydro-indol-1-yl]-{3-[4-(2-isopropoxy-phenyl)-piperidin-1-ylmethyl]-phenyl}-methanone] | 0.0014 µM | 0.237 µM | 0.0018 µM
17 | CC(C)Oc1ccccc1C1CCN(Cc2cccc(C(=O)N3CCc4ccc(NS(=O)(=O)c5c(F)cccc5F)cc43)c2)CC1 [Cpd 58, 2,6-difluoro-N-(1-{3-[4-(2-isopropoxy-phenyl)-piperidin 1-ylmethyl]-benzoyl}-2,3-dihydro-1H-indol-6-yl)-benzenesulfonamide] | 0.0019 µM and 0.001 µM | 0.234 µM and 0.255 µM | 0.0008 µM and 0.0005 µM
